According to patent US11332455B2, “α,β-unsaturated amide compound” (KYOWA KIRIN CO., LTD., priority 2015, dated 2022):

Legend:
Assay in all cases: Cell growth inhibitory effect, cell counting kit 8, 6 days
Type in all cases: cell-based
[1] = system: HuH28, a human liver cancer cell line; settings: 144 h, HuH28 cells, 6 days incubation
Description: (§1) Cell growth inhibitory effect on human mesothelioma, human liver cancer, human ovarian cancer, and […]
(§2) NCI-H226 cells, a human mesothelioma cell line (ATCC, CRL-5826), NCI-H322 cells, a human lung cancer cell line (the European Collection of Authenticated Cell Cultures, 95111734), OVTOKO cells, a human ovarian cancer cell line (JCRB cell bank, JCRB1048) and HuH28, a human liver cancer cell line (JCRB cell bank, JCRB0426) were each subcultured by keeping the cell density under 80% in a RPMI1640 culture medium with 10% fetal bovine serum (FBS). NCI-H226 cells, NCI-H322 cells and SSP-25 cells were each suspended in the RPM11640 culture medium mentioned above, and plated to a 96-well flat-bottom plate at 500 cells/well in each well, and incubated at 37° C. in an incubator with 5% CO2 for one day. After the incubation, the evaluation of cell growth inhibitory activity was started. OVTOKO cells were suspended in the RPMI1640 culture medium mentioned above, and plated to a 96-well flat-bottom plate at 250 cells/well in each well, and incubated it at 37° C. in an incubator with 5% CO2 for one day. After the incubation, the evaluation of the cell growth inhibitory activity was started. The next day, a test compound was serially diluted to 5 times of its final concentration in the RPM11640 culture medium mentioned above, and the diluted solution was added to each well. In this case, the final concentration of DMSO in each well was adjusted to 0.1%. After the test compound was added, cells were incubated at 37° C. in an incubator with 5% CO2 for 6 days. At the addition of the test compound and 6 days after the addition, the cell counting measurement was performed using a cell counting kit 8 (made by DOJINDO) according to a protocol equivalent to DOJINDO's recommendation. A reagent contained in the kit was added to each plate and color reaction was performed for 2 or 3 hours at 37° C. in an incubator with 5% CO2. After the reaction, an absorbance at wavelength of 450 nm was measured using a microplate reader. A growth inhibition rate was calculated according to the following formula, from which the concentration of a test compound at which cell growth was inhibited by 50% (GI50 value) was determined.

[2] = system: NCI-H226 cells, a human mesothelioma cell line; settings: 144 h, 6 days incubation, group less than 100 nmol/L
Description: as §1, §2

[3] = system: NCI-H322 cells, a human lung cancer cell line; settings: 144 h, 6 days incubation
Description: as §1, §2

GI50 [1] [nM]	GI50 [2] [nM]	GI50 [3] [nM]	SMILES
< 3000	< 100	< 1000	C=CC(=O)NC1CCOc2c1ccc(Oc1ccc(C(F)(F)F)cc1)c2F (racemic) [Compound 31, N-[8-Fluoro-7-{4-(trifluoromethyl)phenoxy}chroman-4-yl]acrylamide]
< 3000	< 100	< 1000	C=CC(=O)NC1CCOc2c1ccc(Oc1ccc(C(F)(F)F)cc1)c2OC (racemic) [Compound 33, N-[8-Methoxy-7-{4-(trifluoromethyl)phenoxy}chroman-4-yl]acrylamide]
< 3000	< 100	< 1000	C=CC(=O)NC1COc2c(Oc3ccc(C(F)(F)F)cc3)cccc2C1=O (racemic) [Compound 40, N-[4-Oxo-8-{4-(tolyloromethyl)phenoxy}chroman-3-yl]acrylamide]
< 3000	< 100	< 1000	C=CC(=O)N[C@@H]1c2ccc(Oc3ccc(C(F)(F)F)cc3)cc2OC[C@H]1F (relative stereo) [Compound 22, trans-N-[3-Fluoro-7-{4-(trifluoromethyl)phenoxy}chroman-4-yl]acrylamide]
< 3000	< 100	< 1000	C=CC(=O)N[C@H]1CC[C@@H](Oc2cccc(Cl)c2)c2ncccc21 (relative stereo) [Compound 68, cis-N-{8-(3-Chlorophenoxy)-5,6,7,8-tetrahydroquinolin-5-yl}acrylamide]
< 3000	< 100	< 1000	C=CC(=O)N[C@H]1CC[C@@H](Oc2ccc(C(F)(F)F)cc2)c2nc(OC)ccc21 (relative stereo) [Compound 179, cis-N-[2-Methoxy-8-{4-(trifluoromethyl)phenoxy}-5,6,7,8-tetrahydroquinolin-5-yl]acrylamide]
< 3000	< 100	< 1000	C=CC(=O)N[C@H]1CC[C@@H](Oc2ccc(C(F)(F)F)cc2)c2nc(C3CC3)ccc21 (relative stereo) [Compound 185, cis-N-[2-Cyclopropyl-8-{4-(trifluoromethyl)phenoxy}-5,6,7,8-tetrahydroquinolin-5-yl]acrylamide]
< 3000	< 100	< 1000	C=CC(=O)N[C@H]1CC[C@@H](Oc2ccc(C(F)(F)F)c(F)c2)c2nc(Cl)ccc21 (relative stereo) [Compound 187, cis-N-[2-Chloro-8-{3-fluoro-4-(trifluoromethyl)phenoxy}-5,6,7,8-tetrahydroquinolin-5-yl]acrylamide]
< 3000	< 100	< 1000	C=CC(=O)N[C@H]1CC[C@@H](Oc2ccc(C(F)(F)F)cn2)c2nc(Cl)ccc21 (relative stereo) [Compound 189, cis-N-(2-Chloro-8-[{5-(trifluoromethyl)pyridin-2-yl}oxy]-5,6,7,8-tetrahydroquinolin-5-yl)acrylamide]
< 3000	< 100	< 1000	C=CC(=O)N[C@@H]1CC[C@H](Oc2ccc(C(F)(F)F)cc2)c2ncc(Cl)cc21 (relative stereo) [Compound 190, N-((5R*,8S*)-3-Chloro-8-(4-(trifluoromethyl)phenoxy)-5,6,7,8-tetrahydroquinolin-5-yl)acrylamide]
< 3000	< 100	< 1000	C=CC(=O)NC1CCOc2cc(Oc3ccc(C(F)(F)F)cc3)ccc21 (stereo not drawn) [Compound 5, N-[7-{4-(trifluoromethyl)phenoxy}chroman-4-yl]acrylamide]
< 3000	< 100	< 1000	C=CC(=O)NC1CCOc2c1ccc(Oc1ccc(C(F)(F)F)cc1)c2C (stereo not drawn) [Compound 28, N-[8-Methyl-7-{4-(trifluoromethyl)phenoxy}chroman-4-yl]acrylamide]
< 3000	< 100	< 1000	C=CC(=O)Nc1cncc(Oc2cccc(C(F)(F)F)c2)c1 [Compound 95, N-[5-{3-(Trifluoromethyl)phenoxy}pyridin-3-yl]acrylamide]
< 3000	< 100	< 1000	C=CC(=O)Nc1cncc(Oc2ccc(C(F)(F)F)cc2)c1 [Compound 96, N-[5-{4-(Trifluoromethyl)phenoxy}pyridin-3-yl]acrylamide]
< 3000	< 100	< 1000	C=CC(=O)Nc1cncc(Oc2cncc(C(F)(F)F)c2)c1 [Compound 107, N-(5-[{5-(Trifluoromethyl)pyridin-3-yl}oxy]pyridin-3-yl)acrylamide]
< 3000	< 100	< 1000	C=CC(=O)Nc1cncc(Oc2ccnc(C(F)(F)F)c2)c1 [Compound 108, N-(5-[{2-(Trifluoromethyl)pyridin-4-yl}oxy]pyridin-3-yl)acrylamide]
< 3000	< 100	< 1000	C=CC(=O)Nc1ccc(Oc2ccccc2)c2ncccc12 [Compound 111, N-(8-Phenoxyquinolin-5-yl)acrylamide]
< 3000	< 100	< 1000	C=CC(=O)Nc1ccc(Oc2ccccc2)c2nc(C)ccc12 [Compound 112, N-(2-Methyl-8-phenoxyquinolin-5-yl)acrylamide]
< 3000	< 100	< 1000	C=CC(=O)Nc1ccc(Oc2cccc(Cl)c2)c2ncccc12 [Compound 114, N-{8-(3-Chlorophenoxy)quinolin-5-yl}acrylamide]
< 3000	< 100	< 1000	C=CC(=O)Nc1ccc(Oc2ccc(Cl)cc2)c2nc(C)ccc12 [Compound 117, N-{8-(4-Chlorophenoxy)-2-methylquinolin-5-yl}acrylamide]
< 3000	< 100	< 1000	C=CC(=O)Nc1ccc(OCC2CCC(F)(F)CC2)c2ncccc12 [Compound 126, N-[8-{(4,4-Difluorocyclohexyl)methoxy}quinolin-5-yl]acrylamide]
< 3000	< 100	< 1000	C=CC(=O)NCc1ccc(Oc2ccc(Cl)cc2)c2ncccc12 [Compound 134, N-[{8-(4-Chlorophenoxy)quinolin-5-yl}methyl]acrylamide]
< 3000	< 100	< 1000	C=CC(=O)NCc1ccc(Oc2cccc(C(F)(F)F)c2)c2ncccc12 [Compound 137, N-([8-{3-(Trifluoromethyl)phenoxy}quinolin-5-yl]methyl)acrylamide]
< 3000	< 100	< 1000	C=CC(=O)NCc1ccc(Oc2ccc(C(F)(F)F)cc2)c2ncccc12 [Compound 138, N-([8-{4-(Trifluoromethyl)phenoxy}quinolin-5-yl]methyl)acrylamide]
< 3000	< 100	< 1000	C=CC(=O)NCc1ccc(Oc2ccc(C(F)(F)F)cc2)c2nc(Cl)ccc12 [Compound 139, N-([2-Chloro-8-{4-(trifluoromethyl)phenoxy}quinolin-5-yl]methyl)acrylamide]
< 3000	< 100	< 1000	C=CC(=O)NCc1ccc(Oc2ccc(C(F)(F)F)nc2)c2ncccc12 [Compound 143, N-{(8-[{6-(Trifluoromethyl)pyridin-3-yl}oxy]quinolin-5-yl)methyl}acrylamide]
